Where a name gives a salt, the structure may show the parent alone. Read-outs that look alike come from different tables or passages of the source. Where only a bound is given, the exact number is not on record here.

These results are taken from patent US8492413B2, “Pharmaceutical combination of 5-fluorouracil and derivate of 1,4-dihydropyridine and its use in the treatment of cancer” (priority 2009, dated 2013).

Data set [1] relates to human breast cancer cells MDA-MB-435s. Briefly: Cell viability of MDA-MB-435s cells, crystal violet staining assay, 72 h exposure. In kind it is cell-based. The note with it: for IC50: 72 h, read-out: IC50 (concentration causing 50% cell viability decrease), compound alone. How it is done:
Cell viability was measured using modified crystal violet staining (CVS) assay as described in [[…] et al., 1985]. In brief, cells were fixed with 1% glutaraldehyde for 15 minutes, washed with water and stained with 0.05% crystal violet for 15 minutes at room temperature. After removal of residual crystal violet by washing with tap water the crystal violet stain was eluted with ethanol sodium citrate (1:1) buffer, and absorbance at 540 nm was measured using a microplate reader. The IC50 values, corresponding to concentrations of compounds that cause 50% cell viability decrease, were calculated for individual compounds and their combinations and are summarized in Table 1.

For data set [2], the system named is leukaemia P388, murine sarcoma 37 and Walker's carcinosarcome. The note with it: cited from earlier work.

Turning to `CC1=C(C(=O)OCC(=O)O)C(C)C(C(=O)OCC(=O)O)=C(C)N1` [disodium salt of 2,4,6-trimethyl-1,4-dihydropyridine-3,5-bis-carbonyloxyacetic acid], the IC50 in data set [1] (Homo sapiens, MDA-MB-435S) was above 2690 µM.
In the case of `O=c1[nH]cc(F)c(=O)[nH]1` [Example 5-FU, 5-Fluorouracil], in data set [1] (Homo sapiens, single agent, MDA-MB-435s), the IC50 amounted to 30 µM.
Consider `CCC1C(C(=O)OCC(=O)O)=C(C)NC(C)=C1C(=O)OCC(=O)O` [disodium salt of 4-ethyl-2,6-dimethyl-1,4-dihydropyridine-3,5-bis-carbonyloxyacetic acid], for which the IC50 in data set [1] (Homo sapiens, MDA-MB-435S) was above 2100 µM.
Turning to `CC1=C(C(=O)OCC(=O)[O-])CC(C(=O)OCC(=O)[O-])=C(C)N1.[Na+].[Na+]` [Carbatone, Disodium salt of carboxylate-methyl ester of 2,6-dimethyl-1,4-dihydropyridine-3,5-dicarboxylic acid], the “Effect on the cytotoxic effect of 5-FU (in words)” value in data set [1] (combined treatment with 5-FU, MDA-MB-435s) was “synergistically potentiates the cytotoxic effect of 5-FU”. The IC50 in data set [1] (single agent, MDA-MB-435s) worked out at 1320 µM. For the same compound, the “Effect on cytostatic activity of cyclophosphane, 5-fluorouracil and arabisosyl cytosine” value in data set [2] (against leukaemia P388, murine sarcoma 37 and Walker's carcinosarcome) is recorded as “potentiates the cytostatic activity”. Besides, the “Antitumour activity of the compound itself” value in data set [2] (alone) was “exhibited no antitumour activity”. Besides, in data set [2] (mice), the “Effect on cyclophosphane toxicity” value was “decreasing the cyclophosphane toxicity”.
